The compounds below were run against ER (Homo sapiens (Human), UniProt P03372) (assay: Western blot analysis (Compounds B1-B278)). Conditions: ER degradation by traditional Western blot; DC50 classes.
ER, sequence (P03372 whole entry): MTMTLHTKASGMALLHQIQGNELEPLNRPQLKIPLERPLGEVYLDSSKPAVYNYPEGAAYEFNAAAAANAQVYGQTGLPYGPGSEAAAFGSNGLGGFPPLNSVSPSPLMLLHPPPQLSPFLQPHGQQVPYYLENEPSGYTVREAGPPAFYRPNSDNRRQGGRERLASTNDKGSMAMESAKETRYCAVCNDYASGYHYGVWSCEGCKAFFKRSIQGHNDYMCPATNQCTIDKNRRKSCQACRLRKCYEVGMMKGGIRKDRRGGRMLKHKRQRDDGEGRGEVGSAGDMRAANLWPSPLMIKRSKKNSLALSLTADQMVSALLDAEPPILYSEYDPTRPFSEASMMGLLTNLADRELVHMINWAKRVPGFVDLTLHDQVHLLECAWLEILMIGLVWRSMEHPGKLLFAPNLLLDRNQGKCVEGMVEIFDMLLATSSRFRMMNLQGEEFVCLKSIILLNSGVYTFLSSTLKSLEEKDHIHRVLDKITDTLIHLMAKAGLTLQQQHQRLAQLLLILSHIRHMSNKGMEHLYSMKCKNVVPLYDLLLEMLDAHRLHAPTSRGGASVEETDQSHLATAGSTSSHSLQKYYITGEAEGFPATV
Type: cell-based
Method: Western Blot Analysis. The cells that are treated with the compounds are lysed in Radioimmunoprecipitation Assay Protein Lysis and Extraction Buffer (e.g., 25 mmol/L Tris.HCl, pH 7.6, 150 mmol/L NaCl, 1% Nonidet P-40, 1% sodium deoxycholate, and 0.1% sodium dodecyl sulfate) containing proteinase inhibitor cocktail. Equal amounts of total protein are electrophoresed through 10% SDS-polyacrylamide gels after determination of protein concentration by BCA assay. The separated protein bands are transferred onto PVDF membranes and blotted against different antibodies. The blots are scanned, and the band intensities are quantified (e.g., by using GelQuant.NET software provided by biochemlabsolutions.com). The relative mean intensity of target proteins is expressed after normalization to the intensity of glyceraldehyde-3-phosphate dehydrogenase bands.
Western Blot Analysis. Western blot analysis was performed essentially as described previously. The cells treated with indicated compounds were lysed in Radioimmunoprecipitation Assay Protein Lysis and Extraction Buffer (25 mmol/L Tris.HCl, pH 7.6, 150 mmol/L NaCl, 1% Nonidet P-40, 1% sodium deoxycholate, and 0.1% sodium dodecyl sulfate) containing proteinase inhibitor cocktail (Roche Diagnostics, Mannheim, Germany). Equal amounts of total protein were electrophoresed through 10% SDS-polyacrylamide gels after determination of protein concentration by BCA assay (Fisher Scientific, Pittsburgh, PA). The separated protein bands were transferred onto PVDF membranes (GE Healthcare Life Sciences, Marlborough, MA) and blotted against different antibodies, as indicated. The blots were scanned, and the band intensities were quantified using GelQuant.NET software provided by biochemlabsolutions.com. The relative mean intensity of target proteins was expressed after normalization to the intensity of glyceraldehyde-3-phosphate dehydrogenase bands.
In the case of `C[C@@H]1Cc2c([nH]c3ccccc23)[C@@H](c2c(F)cc(N3CCC(N4CCC(CC(=O)N5Cc6cc7c(cc6C5)C(=O)N(C5CCC(=O)NC5=O)C7=O)CC4)CC3)cc2F)N1CC(F)F` (stereo partly drawn) [Compound B33, 6-(2-(1′-(4-((1R,3R)-2-(2,2-difluoroethyl)-3-methyl-2,3,4,9-tetrahydro-1H-pyrido[3,4-b]indol-1-yl)-3,5-difluorophenyl)-[1,4′-bipiperidin]-4-yl)acetyl)-2-(2,6-dioxopiperidin-3-yl)-6,7-dihydropyrrolo[3,4-f]isoindole-1,3(2H,5H)-dione], the “Traditional Western Degradation Potency” value was “A (“A”: <10 nM)”. For `C[C@@H]1Cc2c([nH]c3ccccc23)[C@@H](c2c(F)cc(N3CCC(N4CCC(CC(=O)N5Cc6cc7c(cc6C5)C(=O)N(C5CCC(=O)NC5=O)C7)CC4)CC3)cc2F)N1CC(F)F` (stereo partly drawn) [Compound B34, 3-(6-(2-(1′-(4-((1R,3R)-2-(2,2-difluoroethyl)-3-methyl-2,3,4,9-tetrahydro-1H-pyrido[3,4-b]indol-1-yl)-3,5-difluorophenyl)-[1,4′-bipiperidin]-4-yl)acetyl)-1-oxo-3,5,6,7-tetrahydropyrrolo[3,4-f]isoindol-2(1H)-yl)piperidine-2,6-dione], the “Traditional Western Degradation Potency” value was “A (“A”: <10 nM)”. For `C[C@@H]1Cc2c([nH]c3ccccc23)[C@@H](c2c(F)cc(N3CCC(N4CCN(CC(=O)N5Cc6cc7c(cc6C5)C(=O)N(C5CCC(=O)NC5=O)C7=O)CC4)CC3)cc2F)N1CC(F)F` (stereo partly drawn) [Compound B35, 6-(2-(4-(1-(4-((1R,3R)-2-(2,2-difluoroethyl)-3-methyl-2,3,4,9-tetrahydro-1H-pyrido[3,4-b]indol-1-yl)-3,5-difluorophenyl)piperidin-4-yl)piperazin-1-yl)acetyl)-2-(2,6-dioxopiperidin-3-yl)-6,7-dihydropyrrolo[3,4-f]isoindole-1,3(2H,5H)-dione], the “Traditional Western Degradation Potency” value was “A (“A”: <10 nM)”. With `C[C@@H]1Cc2c([nH]c3ccccc23)[C@@H](c2c(F)cc(N3CCC(N4CCN(CC(=O)N5Cc6cc7c(cc6C5)C(=O)N(C5CCC(=O)NC5=O)C7)CC4)CC3)cc2F)N1CC(F)F` (stereo partly drawn) [Compound B36, 3-(6-(2-(4-(1-(4-((1R,3R)-2-(2,2-difluoroethyl)-3-methyl-2,3,4,9-tetrahydro-1H-pyrido[3,4-b]indol-1-yl)-3,5-difluorophenyl)piperidin-4-yl)piperazin-1-yl)acetyl)-1-oxo-3,5,6,7-tetrahydropyrrolo[3,4-f]isoindol-2(1H)-yl)piperidine-2,6-dione] the “Traditional Western Degradation Potency” value was “A (“A”: <10 nM)”. In the case of `C[C@@H]1Cc2c([nH]c3ccccc23)[C@@H](c2c(F)cc(N3CC4(CCN(CC(=O)N5Cc6cc7c(cc6C5)C(=O)N(C5CCC(=O)NC5=O)C7=O)CC4)C3)cc2F)N1CC(F)F` (stereo partly drawn) [Compound B37, 6-(2-(2-(4-((1R,3R)-2-(2,2-difluoroethyl)-3-methyl-2,3,4,9-tetrahydro-1H-pyrido[3,4-b]indol-1-yl)-3,5-difluorophenyl)-2,7-diazaspiro[3.5]nonan-7-yl)acetyl)-2-(2,6-dioxopiperidin-3-yl)-6,7-dihydropyrrolo[3,4-f]isoindole-1,3(2H,5H)-dione], the “Traditional Western Degradation Potency” value was “B (“B”: 10-100 nM)”. `C[C@@H]1Cc2c([nH]c3ccccc23)[C@@H](c2c(F)cc(N3CC4(CCN(CC(=O)N5Cc6cc7c(cc6C5)C(=O)N(C5CCC(=O)NC5=O)C7)CC4)C3)cc2F)N1CC(F)F` (stereo partly drawn) [Compound B38, 3-(6-(2-(2-(4-((1R,3R)-2-(2,2-difluoroethyl)-3-methyl-2,3,4,9-tetrahydro-1H-pyrido[3,4-b]indol-1-yl)-3,5-difluorophenyl)-2,7-diazaspiro[3.5]nonan-7-yl)acetyl)-1-oxo-3,5,6,7-tetrahydropyrrolo[3,4-f]isoindol-2(1H)-yl)piperidine-2,6-dione] was tested, and the “Traditional Western Degradation Potency” value was “A (“A”: <10 nM)”. With `C[C@@H]1Cc2c([nH]c3ccccc23)[C@@H](c2c(F)cc(N3CCC4(CC3)CC(C(=O)N3CCC(CN5Cc6cc7c(cc6C5)C(=O)N(C5CCC(=O)NC5=O)C7=O)CC3)C4)cc2F)N1CC(F)F` (stereo partly drawn) [Compound B39, 6-((1-(7-(4-((1R,3R)-2-(2,2-difluoroethyl)-3-methyl-2,3,4,9-tetrahydro-1H-pyrido[3,4-b]indol-1-yl)-3,5-difluorophenyl)-7-azaspiro[3.5]nonane-2-carbonyl)piperidin-4-yl)methyl)-2-(2,6-dioxopiperidin-3-yl)-6,7-dihydropyrrolo[3,4-f]isoindole-1,3(2H,5H)-dione] the “Traditional Western Degradation Potency” value was “B (“B”: 10-100 nM)”. For `C[C@@H]1Cc2c([nH]c3ccccc23)[C@@H](c2c(F)cc(N3CCC4(CC3)CC(C(=O)N3CCC(N5Cc6cc7c(cc6C5)C(=O)N(C5CCC(=O)NC5=O)C7=O)CC3)C4)cc2F)N1CC(F)F` (stereo partly drawn) [Compound B40, 6-(1-(7-(4-((1R,3R)-2-(2,2-difluoroethyl)-3-methyl-2,3,4,9-tetrahydro-1H-pyrido[3,4-b]indol-1-yl)-3,5-difluorophenyl)-7-azaspiro[3.5]nonane-2-carbonyl)piperidin-4-yl)-2-(2,6-dioxopiperidin-3-yl)-6,7-dihydropyrrolo[3,4-f]isoindole-1,3(2H,5H)-dione], the “Traditional Western Degradation Potency” value was “A (“A”: <10 nM)”. For `C[C@@H]1Cc2c([nH]c3ccccc23)[C@@H](c2c(F)cc(N3CCC4(CC3)CC(C(=O)N3CCC(N5Cc6cc7c(cc6C5)C(=O)N(C5CCC(=O)NC5=O)C7)CC3)C4)cc2F)N1CC(F)F` (stereo partly drawn) [Compound B41, 3-(6-(1-(7-(4-((1R,3R)-2-(2,2-difluoroethyl)-3-methyl-2,3,4,9-tetrahydro-1H-pyrido[3,4-b]indol-1-yl)-3,5-difluorophenyl)-7-azaspiro[3.5]nonane-2-carbonyl)piperidin-4-yl)-1-oxo-3,5,6,7-tetrahydropyrrolo[3,4-f]isoindol-2(1H)-yl)piperidine-2,6-dione], the “Traditional Western Degradation Potency” value was “A (“A”: <10 nM)”. `C[C@@H]1Cc2c([nH]c3ccccc23)[C@@H](c2c(F)cc(N3CC(CC(=O)N4Cc5cc6c(cc5C4)C(=O)N(C4CCC(=O)NC4=O)C6)C3)cc2F)N1CC(F)F` (stereo partly drawn) [Compound B42, 3-(6-(2-(1-(4-((1R,3R)-2-(2,2-difluoroethyl)-3-methyl-2,3,4,9-tetrahydro-1H-pyrido[3,4-b]indol-1-yl)-3,5-difluorophenyl)azetidin-3-yl)acetyl)-1-oxo-3,5,6,7-tetrahydropyrrolo[3,4-f]isoindol-2(1H)-yl)piperidine-2,6-dione] was tested, and the “Traditional Western Degradation Potency” value was “C (“C”: >100 nM)”. With `C[C@@H]1Cc2c([nH]c3ccccc23)[C@@H](c2c(F)cc(N3CC(CC(=O)N4CC(N5Cc6cc7c(cc6C5)C(=O)N(C5CCC(=O)NC5=O)C7)C4)C3)cc2F)N1CC(F)F` (stereo partly drawn) [Compound B43, 3-(6-(1-(2-(1-(4-((1R,3R)-2-(2,2-difluoroethyl)-3-methyl-2,3,4,9-tetrahydro-1H-pyrido[3,4-b]indol-1-yl)-3,5-difluorophenyl)azetidin-3-yl)acetyl)azetidin-3-yl)-1-oxo-3,5,6,7-tetrahydropyrrolo[3,4-f]isoindol-2(1H)-yl)piperidine-2,6-dione] the “Traditional Western Degradation Potency” value was “B (“B”: 10-100 nM)”. In the case of `C[C@@H]1Cc2c([nH]c3ccccc23)[C@@H](c2c(F)cc(N3CCC(CC(=O)N4Cc5cc6c(cc5C4)C(=O)N(C4CCC(=O)NC4=O)C6)CC3)cc2F)N1CC(F)F` (stereo partly drawn) [Compound B44, 3-(6-(2-(1-(4-((1R,3R)-2-(2,2-difluoroethyl)-3-methyl-2,3,4,9-tetrahydro-1H-pyrido[3,4-b]indol-1-yl)-3,5-difluorophenyl)piperidin-4-yl)acetyl)-1-oxo-3,5,6,7-tetrahydropyrrolo[3,4-f]isoindol-2(1H)-yl)piperidine-2,6-dione], the “Traditional Western Degradation Potency” value was “C (“C”: >100 nM)”. With `C[C@@H]1Cc2c([nH]c3ccccc23)[C@@H](c2c(F)cc(N3CC4(CCCN(CC(=O)N5Cc6cc7c(cc6C5)C(=O)N(C5CCC(=O)NC5=O)C7=O)C4)C3)cc2F)N1CC(F)F` (stereo partly drawn) [Compound B45, 6-(2-(2-(4-((1R,3R)-2-(2,2-difluoroethyl)-3-methyl-2,3,4,9-tetrahydro-1H-pyrido[3,4-b]indol-1-yl)-3,5-difluorophenyl)-2,6-diazaspiro[3.5]nonan-6-yl)acetyl)-2-(2,6-dioxopiperidin-3-yl)-6,7-dihydropyrrolo[3,4-f]isoindole-1,3(2H,5H)-dione] the “Traditional Western Degradation Potency” value was “C (“C”: >100 nM)”. `C[C@@H]1Cc2c([nH]c3ccccc23)[C@@H](c2c(F)cc(N3CC4(CCCN(CC(=O)N5Cc6cc7c(cc6C5)C(=O)N(C5CCC(=O)NC5=O)C7)C4)C3)cc2F)N1CC(F)F` (stereo partly drawn) [Compound B46, 3-(6-(2-(2-(4-((1R,3R)-2-(2,2-difluoroethyl)-3-methyl-2,3,4,9-tetrahydro-1H-pyrido[3,4-b]indol-1-yl)-3,5-difluorophenyl)-2,6-diazaspiro[3.5]nonan-6-yl)acetyl)-1-oxo-3,5,6,7-tetrahydropyrrolo[3,4-f]isoindol-2(1H)-yl)piperidine-2,6-dione] was tested, and the “Traditional Western Degradation Potency” value was “B (“B”: 10-100 nM)”.

Reference: patent US20260007681A1, “INDOLE DERIVATIVES AS ESTROGEN RECEPTOR DEGRADERS” (REGENTS OF THE UNIVERSITY OF MICHIGAN, priority 2022, published 2026)
